Source: patent publication US20190382827A1, “USE OF MICROBIAL METABOLITES FOR TREATING DISEASES” (Yeda Research and Development Co. Ltd., priority 2015, published 2019)
Entries after “also recorded” stand apart in the source; their conditions may differ.

System: DSS colitis
Assay: DSS colitis
Type: in vivo, mouse
Description: For IL-18 rescue experiments, recombinant IL-18 (MBL, Cat#B004-2) was injected intraperitoneally at a concentration of 1 μg per mouse for 5 days, and not injected for 2 days prior to DSS treatment. IL-18 injection to Swiss Webster germ-free mice and Nlrp6^−/− mice was performed twice a day for 3 days, while the mice were kept sterile using a cage-autonomous system (Hecht et al., 2014).
Mice were treated with 1.5% (w/v) DSS (M.W.=36,000-50,000 Da; MP Biomedicals) in their drinking water for 7 days followed by regular access to water. The animals were weighed daily and monitored for signs of distress as well as rectal bleeding.
For DSS rescue experiments, mice were receiving taurine in the drinking water prior to DSS treatment in a concentration of 100 mg/ml for 14 days.
Colonoscopy was performed using a high-resolution mouse video endoscopic system (Carl Storz, Tuttlingen, Germany). The severity of colitis was blindly scored using MEICS (Murine Endoscopic Index of Colitis Severity), which is based on five parameters: granularity of mucosal surface; vascular pattern; translucency of the colon mucosa; visible fibrin; and stool consistency (Becker et al., 2006).
On the day of the assay, 4 kDa fluorescein isothiocyanate (FITC)-dextran was dissolved in phosphate buffered saline (PBS) to a concentration of 80 mg ml^−1. Mice were fasted for 4 hours prior to gavage with 150 μl dextran. Mice were anesthetized 3 hours following gavage and blood was collected, centrifuged at 1,000×g for 12 min at 4° C. Serum was collected and fluorescence was quantified at an excitation wavelength of 485 nm and 535 nm emission wavelength.
DNA was extracted from liver samples (using MoBio PowerSoil kit). DNA concentration was calculated using a standard curve of known DNA concentrations from E. coli K12. 16S qPCR using primers identifying different regions of the V6 16S gene was performed using Kappa SYBR fast mix.
Absolute number of bacteria in the samples was then approximated as DNA amount in a sample/DNA molecule mass of bacteria.

[1] = WT mice, DSS colitis, taurine in drinking water
[2] = WT mice, taurine in drinking water for two weeks, then DSS colitis

| Structure (SMILES) | exacerbation of DSS colitis (WT mice concomitantly treated with antibiotics) | DSS colitis (WT mice, histamine treatment) | beneficial effects on DSS colitis (GF WT mice) | beneficial effects on DSS colitis (WT mice treated with broad-spectrum antibiotics) | hepatic bacterial load [1] | systemic FITC-dextran influx [1] | epithelial tight junction integrity (WT mice, DSS colitis, taurine in drinking water, ZO-1 staining) | beneficial effects on DSS colitis (WT mice, taurine administration stopped before induction of DSS colitis) | colitis severity [2] | weight loss [2] | survival (WT mice, taurine in drinking water, DSS) | beneficial effects on DSS colitis (mice lacking either ASC or NLRP6) |
| --- | --- | --- | --- | --- | --- | --- | --- | --- | --- | --- | --- | --- |
| NCCc1c[nH]cn1 [histamine] | prevented | exacerbated |  |  |  |  |  |  |  |  |  |  |
| NCCS(=O)(=O)O [taurine] |  |  | failed to have beneficial effects | failed to have beneficial effects | decreased | reduced | sustained | beneficial effects were also observed | ameliorated; also recorded: reduced | improved | enhanced | failed to have beneficial effects |
